# According to patent US5010084A, “Imidazoquinolone derivatives” (Kyowa Hakko Kogyo Co., Ltd., priority 1989, dated 1991):
# Where a name gives a salt, the structure may show the parent alone.
# Tests used:
# [1] = test system: zig-zag strips of the tracheae (passively sensitized guinea pigs); assay: Effects on passive Schultz-Dale reaction (broncho-dilatory effects); type: cell-based, guinea pig (male Hartley); details: Cavia porcellus; guinea pig trachea contracted with antigen EWA 1 μg/ml, 37° C., cumulative concentration-relaxation curves; read-out: Passive Schultz-Dale reaction (IC50), concentration of 50% relaxation rate
# Method: Male Hartley guinea pigs weighing 350 to 500 g were passively sensitized by intraperitoneal injection of rabbit anti-egg white albumin (EWA) serum prepared by the method of Eda et al. [Folia pharmacol., Japon 66, 237, (1970)]. After 24 hours, the guinea pigs were stunned and exsanguinated, and then tracheae were removed. The zig-zag strips of the tracheae were prepared by the method of Emmerson and Mackay [J. Pharm. Pharmacol., 31, 798, (1979)]. The strips were suspended in Krebs-Henseleit solution at 37° C. under aeration of a mixed gas of 95% oxygen and 5% carbon dioxide, and equilibrated for one hour. Antigen (EWA) was then introduced in the solution (final concentration; 1 μg/ml), and the contraction was measured by […] (TD-112s, made by Nihon Kohden K.K., Japan) and recorded on a recorder (Type 3066, made by Yokogawa-Hokushin Denki, K.K. Japan). After the contraction curves reached plateau, the compounds were successively added in order to get cumulative concentration-relaxation curves.
# Acute toxicity = details: mouse, in vivo; male dd-mice, po, mortality for seven days
# Method: The compounds were orally administrated (po: 300 mg/kg) to male dd-mice weighing 20 to 25 g. LD50 was determined by observing the mortality for seven days after the administration.
# [2] = test system: passively sensitized guinea pigs, experimental asthma; assay: Effects on experimental asthma; type: in vivo, guinea pig (male Hartley); details: guinea pig, 50 mg/kg orally, 1 hour before aerosol of 1.5% EWA; diphenhydramine and propranolol pretreated; control 254
# Method: Guinea pigs were passively sensitized as follows. Male Hartley guinea pigs weighing 350 to 500g were intraperitoneally injected with 1 ml of rabbit EWA serum prepared by the method of Eda et al. [Folia pharmacol., Japon, 66, 237 (1970)]. The animals were treated with intraperitoneal injection of diphenhydramine (20 mg/kg) and propranolol (5 mg/kg), 30 minutes before administration of test compounds. 17 hours after the sensitization, the test compounds (50 mg/kg) were orally administrated to sensitized animals. After one hour from the administration of the test compounds, the guinea pigs were placed in plastic observation box and were exposed to an aerosal antigen of 1.5% EWA. The time until the onset of respiratory […] symptom [collapse time (second)] was measured as a result of experimental asthma.
SMILES,IC50 [1] [µM],LD50 at 168 h (Acute toxicity) [mg/kg],"Experimental asthma, collapse time (time until the onset of respiratory distresslike symptom) [2] [s]"
"Cn1c(=O)c2[nH]cnc2n(C)c1=O [Aminophylline, reference compound]",23,–,–
"CCCCn1c(=O)c2c(ncn2C)c2ccccc21 [Compound 1, 5-n-Butyl-3-methyl-3H,5H-imidazo[4,5,-c]quinolin-4-one]",6.7,> 200,429
"CCCCn1c(=O)c2c(ncn2CC)c2ccccc21.Cl [Compound 2, 5-n-Butyl-3-ethyl-3H,5H-imidazo[4,5-c]quinolin-4-one hydrochloride]",2,> 300,–
"CCCCn1c(=O)c2c(ncn2CCC)c2ccccc21.Cl [Compound 3, 5-n-Butyl-3-n-propyl-3H,5H-imidazo[4,5-c]quinolin-4-one hydrochloride]",6.8,> 300,348
"CCCCn1c(=O)c2c(ncn2C(C)C)c2ccccc21 [Compound 4, 5-n-Butyl-3-isopropyl-3H,5H-imidazo[4,5,-c]quinolin-4-one hydrochloride]",3.7,> 300,–
"CCCCn1cnc2c3ccccc3n(CCCC)c(=O)c21 [Compound 5, 3,5-Di-n-Butyl-3H,5H-imidazo [4,5,-c] quinolin-4-one hydrochloride]",–,> 300,–
"CCCCn1c(=O)c2c(ncn2CC(C)=O)c2ccccc21 [Compound 6, 3-Acetonyl-5-n-butyl-3H,5H-imidazo[4,5,-c]quinolin-4-one]",7.9,> 300,530
"CCCCn1c(=O)c2c(ncn2CC(=O)OC(C)(C)C)c2ccccc21 [Compound 7, 3-tert-Butoxycarbonylmethyl-5-n-butyl-3H,5H-imidazo[4,5-c]quinolin-4-one]",0.47,–,–
"CCCCn1c(=O)c2c(ncn2CC(=O)O)c2ccccc21 [Compound 8, 5-n-Butyl-3-carboxymethyl-3H,5H-imidazo[4,5,-c]quinolin-4-one]",6.7,–,–
"CCn1c(=O)c2c(ncn2C)c2ccccc21 [Compound 9, 5-Ethyl-3-methyl-3H,5H-imidazo[4,5,-c]quinolin-4-one]",1.3,–,–
"Cn1c(=O)c2[nH]cnc2n(C)c1=O [Theophylline, reference compound]",–,–,414
